Assay results taken from ChEMBL document CHEMBL3232823, “Non-imidazole histamine H3 receptor ligands incorporating antiepileptic moieties” (Eur J Med Chem, 2014).
Activity calls are given as the source filed them. The calls are words filed in the database; no cut-off is given here.

What was measured:
Histamine H1 receptor = Histamine H1 receptor (Homo sapiens, UniProt P35367); assay: Displacement of [3H]pyrilamine from human H1 receptor expressed in CHO cell membrane after 120 mins by liquid scintillation counting analysis; assay type: cell membranes
Rattus norvegicus [1] = assay: Anticonvulsant activity against PTZ-kindled convulsion Wistar rat model assessed as prolongation of latency time to myoclonic convulsions at 10 mg/kg, ip administered 30 mins before PTZ challenge; assay type: functional, organism-based; design: dose 10 mg/kg
Rattus norvegicus [2] = assay: Anticonvulsant activity against PTZ-kindled convulsion Wistar rat model assessed as decrease in total convulsion time at 10 mg/kg, ip administered 30 mins before PTZ challenge; assay type: functional, organism-based; design: dose 10 mg/kg
Histamine H4 receptor = Histamine H4 receptor (Homo sapiens, UniProt Q9H3N8); assay: Displacement of [3H]histamine from human H4 receptor expressed in Sf9 cell membrane co-transfected with Galphai2 and Gbeta1gamma2 after 60 mins by liquid scintillation counting analysis
Rattus norvegicus [3] = assay: Anticonvulsant activity against PTZ-kindled convulsion Wistar rat model assessed as reduction in convulsions at 10 mg/kg, ip administered 30 mins before PTZ challenge measured for 10 to 30 mins; assay type: functional, organism-based; design: dose 10 mg/kg
Rattus norvegicus [4] = assay: Anticonvulsant activity in Wistar rat assessed as protection against maximal electroshock-induced convulsions at 1 mg/kg, ip administered 30 mins before MES challenge; assay type: functional, organism-based; design: dose 1 mg/kg
Rattus norvegicus [5] = assay: Anticonvulsant activity against PTZ-kindled convulsion Wistar rat model assessed as increase in latency time to clonic-tonic convulsions at 10 mg/kg, ip administered 30 mins before PTZ challenge; assay type: functional, organism-based; design: dose 10 mg/kg
Histamine H3 receptor = Histamine H3 receptor (Homo sapiens, UniProt Q9Y5N1); assay: Displacement of [3H]N-alpha-methylhistamine from human H3 receptor expressed in HEK-293 cell membrane after 90 mins by liquid scintillation counting analysis; assay type: cell membranes, HEK293
Rattus norvegicus [6] = assay: Anticonvulsant activity against PTZ-kindled convulsion Wistar rat model assessed as reduction in convulsions at 1 mg/kg, ip administered 30 mins before PTZ challenge measured for 10 to 30 mins; assay type: functional, organism-based; design: dose 1 mg/kg
Rattus norvegicus [7] = assay: Anticonvulsant activity against PTZ-kindled convulsion Wistar rat model assessed as latency for the first atypical behaviours at 10 mg/kg, ip administered 30 mins before PTZ challenge; assay type: functional, organism-based; design: dose 10 mg/kg
Rattus norvegicus [8] = assay: Anticonvulsant activity in Wistar rat assessed as protection against maximal electroshock-induced convulsions at 10 mg/kg, ip administered 30 mins before MES challenge; assay type: functional, organism-based; design: dose 10 mg/kg
Rattus norvegicus [9] = assay: Anticonvulsant activity in Wistar rat assessed as protection against maximal electroshock-induced convulsions at 1 to 10 mg/kg, ip administered 30 mins before MES challenge; assay type: functional, organism-based
Rattus norvegicus [10] = assay: Proconvulsant activity in maximal electroshock-induced convulsions Wistar rat model assessed as tonic hindlimb extensions at 1 to 10 mg/kg, ip administered 30 mins before MES challenge; assay type: ADME, organism-based; design: dose 1-10 mg/kg, route intraperitoneal; conditions: in vivo, 0.5 h
Rattus norvegicus [11] = assay: Anticonvulsant activity against PTZ-kindled convulsion Wistar rat model assessed as reduction in convulsions at 1 to 10 mg/kg, ip administered 30 mins before PTZ challenge measured for 10 to 30 mins; assay type: functional, organism-based

Histamine H3 receptor, sequence (Q9Y5N1 whole entry): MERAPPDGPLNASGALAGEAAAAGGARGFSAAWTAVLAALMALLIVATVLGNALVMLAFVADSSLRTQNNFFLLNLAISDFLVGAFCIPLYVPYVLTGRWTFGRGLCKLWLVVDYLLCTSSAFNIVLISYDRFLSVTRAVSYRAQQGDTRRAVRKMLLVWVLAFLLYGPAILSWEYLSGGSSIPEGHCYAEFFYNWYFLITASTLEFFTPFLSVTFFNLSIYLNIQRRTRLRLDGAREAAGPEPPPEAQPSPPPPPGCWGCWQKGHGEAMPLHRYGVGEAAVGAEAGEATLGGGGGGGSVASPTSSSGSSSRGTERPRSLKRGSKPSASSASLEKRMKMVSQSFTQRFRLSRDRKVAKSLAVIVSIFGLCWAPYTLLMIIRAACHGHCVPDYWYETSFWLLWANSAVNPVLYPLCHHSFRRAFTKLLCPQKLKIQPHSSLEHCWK
Histamine H1 receptor, sequence (P35367 whole entry): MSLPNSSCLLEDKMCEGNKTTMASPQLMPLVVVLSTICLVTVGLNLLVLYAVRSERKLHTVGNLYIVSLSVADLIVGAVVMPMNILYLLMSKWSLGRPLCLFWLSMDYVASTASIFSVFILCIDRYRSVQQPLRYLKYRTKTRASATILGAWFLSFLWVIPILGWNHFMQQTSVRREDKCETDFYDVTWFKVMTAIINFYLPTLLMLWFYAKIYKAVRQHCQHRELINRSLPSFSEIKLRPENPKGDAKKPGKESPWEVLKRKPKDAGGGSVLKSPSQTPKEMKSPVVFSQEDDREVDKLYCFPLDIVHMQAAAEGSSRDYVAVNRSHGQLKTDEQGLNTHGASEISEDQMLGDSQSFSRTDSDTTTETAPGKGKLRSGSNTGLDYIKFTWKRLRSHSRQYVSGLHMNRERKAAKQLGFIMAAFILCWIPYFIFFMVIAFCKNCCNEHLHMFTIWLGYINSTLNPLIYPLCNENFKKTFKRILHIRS

Compound | Ki (Histamine H1 receptor) [µM] | Ki (Histamine H4 receptor) [µM] | Ki (Histamine H3 receptor) [nM] | Activity (Rattus norvegicus [9]) | other results
O=C1NC(c2ccccc2)(c2ccccc2)C(=O)N1CCCN1CCCCC1 | 6.17 | 490 | 562 |  | Activity (Rattus norvegicus [1]): Active; Activity (Rattus norvegicus [2]): Active; inhibition (Rattus norvegicus [3]): Active; Activity (Rattus norvegicus [4]): Active; Activity (Rattus norvegicus [5]): Active; inhibition (Rattus norvegicus [6]): inactive; Activity (Rattus norvegicus [7]): inactive
S=C(NC1CCCCC1)N1CCC(c2cnc[nH]2)CC1 [THIOPERAMIDE] | > 10 |  |  |  | 
Cc1nnc(-c2cccnc2)n1-c1ccc(OCCCN2CCCCC2)cc1 | 10.5 | 1410 | 0.24 | inactive | 
O=C1NC(=O)C(c2ccccc2)(c2ccccc2)N1 |  |  |  |  | Activity (Rattus norvegicus [8]): Active

The next lines start with results.

Ki (Histamine H1 receptor) [µM] | Ki (Histamine H4 receptor) [µM] | Ki (Histamine H3 receptor) [nM] | Compound | Activity (Rattus norvegicus [9]) | other results
 | > 10 |  | Clc1ccc(CCCOCCCN2CCCCC2)cc1 [PITOLISANT] |  | Activity (Rattus norvegicus [8]): Active
31.6 | 331 | 42.7 | C[C@H](NCc1ccc(OCCCN2CCCCC2)cc1)C(N)=O | inactive | 
29.5 | 20.4 | 0.933 | Cc1nnc(C)n1-c1ccc(OCCCN2CCCCC2)cc1 | inactive | 
2.24 | 9.33 | 75.9 | O=C1NC(c2ccccc2)(c2ccccc2)C(=O)N1Cc1ccc(OCCCN2CCCCC2)cc1 | inactive | Activity (Rattus norvegicus [10]): Toxic; inhibition (Rattus norvegicus [11]): inactive
